These results are taken from patent publication US20050004216A1, “Treating asthma, chronic obstructive pulmonary disease and/or other respiratory difficulties” (priority 2001, published 2005).

The conditions of assay [1]: laboratory experiments; reference to website www.gcinutrients.com; cited from earlier work.
In assay [2] the test system is asthma, chronic obstructive pulmonary disease and/or other respiratory difficulties. Nature of the assay: Trial examples: oral capsules in patients with asthma and/or chronic obstructive pulmonary disease. In kind it is in vivo, human. The conditions noted are these: trials with a variety of patients; dosage forms of cetyl myristate alone. The text has this:
Examples of use follows. […] That mixture comprises by weight 95% cetyl myristate and 5% cetyl palmitate by weight manufactured by the process as disclosed in NZ Patent Specification No. 332959. In addition added excipients were present in the admixture and then encapsulated in the non gelatin two part capsule case.

SMILES strings stand for the structures.

For `CCCCCCCCCCCCCCCCOC(=O)CCCCCCCCCCCCC` [cetyl myristate], the anti-arthritic activity result in assay [1] is “negligible”. The “relief from the symptoms of asthma, chronic obstructive pulmonary disease and/or other respiratory difficulties” value in assay [2] is recorded as “favourable responses”.
